Data on three compounds can be found in patent publication US4692525A, “Process for the separation of optical isomers of racemic 1-pyridyl-alkyl-4-aryl piperazines, and optical isomers obtained thereby” (Malesci S.p.A. Istituto Farmacobiologico, priority 1983, dated 1987).

The test system of one data set is Male Swiss mice. Kind of data set: Acute toxicity, i.p., mice (DL50). It is filed as in vivo. Here is the method:
(§1) Male Swiss mice of 20-25 g body weight were treated by i.p. injection with rated concentrations of the three compounds. The values of DL50 and the relative confidence limits were calculated according to the method of Wilcoxon (J. Pharmac. Exp. Ther. 96, 99; 1949).

The test system of data set [1] is post-synaptic alpha-receptors. Kind of data set: Alpha-blocking activity in vitro, isolated rabbit aorta, antagonism of nor-adrenaline response. It is filed as biochemical. The note with it: for pA2 (M ±DS): isolated rabbit aorta, versus nor-adrenaline. On the procedure: The aorta isolated from a rabbit and prepared according to the procedure of Furchgott and Bhadrakom (J. Pharm. Exp. Ther. 108, 129; 1953) was tested with cumulative doses of nor-adrenaline till maximum responde obtainable in the absence and in the presence of the three compounds. The pA2 values were calculated according to Ariens and Van Rossum (Arch. Int. Pharmacodyn. 110, 275; 1957)
It is evident from the Table given above that the (+) derivative is 100 times as active as the (-) derivative and almost 3 times as active as the (r) compound in blocking the post-synaptic alpha-receptors response to nor-adrenaline.

In data set [2] the test system is Spontaneously hypertensive rats. Kind of data set: Hypotensive activity in vivo, spontaneously hypertensive rats, oral. On the set-up: species or system rat. The note with it: for anti-hypertensive activity (in words): in vivo, comparison among racemate and isomers; for ED50: Rattus norvegicus, 30' after oral administration, obtained from graphs. Here is the method:
Spontaneously hypertensive rats were employed after they were fasted for 16 hours and tested for their systemic pressure by bloodless measurements before and after oral administration of the three compounds at the doses of 5-10-15 mg/kg.
The administration of all the compounds gives rise to a lowering of the dose-dependent hypertension, because the regression coefficients are always significative. The ED50 values in mg/kg, obtained from the graphs of the activities observed, are as follows;

Data set [3] in a line: Acute toxicity, i.p., mice (DL50). In kind it is in vivo. The settings on record: mouse, in vivo, ip, i.p. injection, male Swiss mice; Wilcoxon method. On the procedure:
as §1

Compound `CCOC(CN1CCN(c2ccccc2OC)CC1)c1cccnc1` (single isomer, unassigned; (-)) [(-), (-) 1-(2-ethoxy-2-(3'-pyridyl)ethyl)-4-(o-methoxyphenyl)piperazine] had a DL50 in the data set on Male Swiss mice (i.p. injection, male Swiss mice, Wilcoxon method) of 68 mg/kg. Besides, the “pA2 (M ±DS)” value in data set [1] is 6.95 ± 0.05. Also, the “anti-hypertensive activity (in words)” value in data set [2] was “quite low activity”; in data set [2] (listed as laevorotatory isomer) it was “almost inactive”.

As usually defined, the LD50 is the dose at which mortality reaches 50%. As a reminder, the ED50 is the midpoint of the dose-response relation. A high value points to weaker potency. The compound `CCOC(CN1CCN(c2ccccc2OC)CC1)c1cccnc1` (racemic) [(r), (±) 1-(2-ethoxy-2-ethoxy-2-(3'-pyridyl)ethyl)-4-(o-methoxyphenyl)piperazine] gave an LD50 in data set [3] of 75 mg/kg. In addition, in data set [1], the “pA2 (M ±DS)” value was determined as 8.62 ± 0.11. Also, the ED50 in data set [2] (0.5 h) turned out to be 7.8 mg/kg; in data set [2] (1.5 h, 1 h), 18.8 mg/kg.

As to `CCOC(CN1CCN(c2ccccc2OC)CC1)c1cccnc1` (single isomer, unassigned; (+)) [(+), (+) 1-(2-ethoxy-2-(3'-pyridyl)ethyl)-4-(o-methoxyphenyl)piperazine], in the data set on Male Swiss mice (LD50 values or symptomatology), the “toxicity compared with racemic compound (in words)” value is reported as “same toxicity of said racemic compound”. Also, the LD50 in data set [3] was 65 mg/kg. For the same compound, the “pA2 (M ±DS)” value in data set [1] stood at 9.04 ± 0.03. Besides, the “activity relative to the (-) derivative in blocking the post-synaptic alpha-receptors response to nor-adrenaline” value in data set [1] (versus (-) derivative) came out at 100 times. Besides, in data set [1] (versus (r) compound), the “activity relative to the (r) compound in blocking the post-synaptic alpha-receptors response to nor-adrenaline” value was approximately 3 times. Further, the median effective dose (ED50) in data set [2] (0.5 h) stood at 5.5 mg/kg; in data set [2] (1.5 h, 1 h) it was 10.9 mg/kg. In addition, the “anti-hypertensive activity (in words)” value in data set [2] is “most active form”; in data set [2] (listed as dextrorotatory isomer) it was “higher anti-hypertensive activity than the racemic compound”.
